Test results from patent US6737383B1, “Herbicidal oxadiazolidines” (priority 1999, dated 2004).

Tests used:
rape = experiment: Test B pre/postemergence rape; format: in vivo, Brassica napus
In short: (§1)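 Herbicidal effect was estimated by eye on a ten-point control scale after plants spent twelve to sixteen days in a greenhouse following soil or foliar treatment. Foliar sprays targeted plants at one to four leaves; all doses were formulated in a non-phytotoxic solvent with surfactant.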

morningglory = experiment: Test B pre/postemergence morningglory; format: in vivo, Ipomoea hederacea
In short: as §1

surinam grass = experiment: Test B pre/postemergence surinam grass; format: in vivo, Brachiaria decumbens
In short: as §1

wheat = experiment: Test B pre/postemergence wheat; format: in vivo, Triticum aestivum
In short: as §1

crabgrass = experiment: Test B pre/postemergence crabgrass; format: in vivo, Digitaria sanguinalis
In short: as §1

cocklebur = experiment: Test B pre/postemergence cocklebur; format: in vivo, Xanthium strumarium
In short: as §1

bedstraw = experiment: Test B pre/postemergence bedstraw; format: in vivo, Galium aparine; conditions: for Plant response rating, Bedstraw: Rate 62 g/ha, scale of 0 to 10 where 0 is no effect and 10 is complete control
In short: as §1

corn = experiment: Test B pre/postemergence corn; format: in vivo, Zea mays
In short: as §1

soybean = experiment: Test B pre/postemergence soybean; format: in vivo, Glycine max
In short: as §1

sugar beet = experiment: Test B pre/postemergence sugar beet; format: in vivo, Beta vulgaris
In short: as §1

purple nutsedge = experiment: Test B pre/postemergence purple nutsedge; format: in vivo, Cyperus rotundus
In short: as §1

pigweed = experiment: Test B pre/postemergence pigweed; format: in vivo, Amaranthus retroflexus
In short: as §1

blackgrass = experiment: Test B pre/postemergence blackgrass; format: in vivo, Alopecurus myosuroides
In short: as §1

giant foxtail = experiment: Test B pre/postemergence giant foxtail; format: in vivo, Setaria faberii
In short: as §1

velvetleaf = experiment: Test B pre/postemergence velvetleaf; format: in vivo, Abutilon theophrasti
In short: as §1

wild oat = experiment: Test B pre/postemergence wild oat; format: in vivo, Avena fatua
In short: as §1

[1] = Postemergence, Rate 62 g/ha, scale of 0 to 10, 0 is no effect, 10 is complete control
[2] = Postemergence, Rate 125 g/ha, scale 0 to 10, 0 is no effect, 10 is complete control
[3] = Postemergence, Rate 500 g/ha, scale 0 to 10, 0 is no effect, 10 is complete control
[4] = Preemergence, Rate 62 g/ha, scale of 0 to 10 where 0 is no effect and 10 is complete control
[5] = Preemergence, Rate 125 g/ha, scale 0 to 10, 0 is no effect, 10 is complete control
[6] = Preemergence, Rate 500 g/ha, scale of 0 to 10 where 0 is no effect and 10 is complete control
[7] = Preemergence, Rate 250 g/ha, scale 0 to 10, 0 is no effect, 10 is complete control
[8] = Preemergence, Rate 500 g/ha, scale 0 to 10, 0 is no effect, 10 is complete control
[9] = Postemergence, Rate 250 g/ha, scale 0 to 10

Structure (SMILES): CC(C)N(C(=O)n1oc(=O)n(CCCF)c1=O)c1ccc(F)cc1F [Compound 500]
- Rape plant response rating (rape; [1]): 3
- Rape plant response rating (rape; [2]): 3
- Plant response rating, Rape (rape; [3]): 8
- Plant response rating, Rape (rape; [4]): 9
- Rape plant response rating (rape; [5]): 10
- Rape plant response rating (rape; [6]): 10
- Morningglory plant response rating (morningglory; [1]): 3
- Morningglory plant response rating (morningglory; [2]): 3
- Plant response rating, Morningglory (morningglory; [3]): 3
- Plant response rating, Morningglory (morningglory; [4]): 0
- Morningglory plant response rating (morningglory; [5]): 5
- Morningglory plant response rating (morningglory; [6]): 9
- B. signalgrass plant response rating (surinam grass; [1]): 3
- B. signalgrass plant response rating (surinam grass; [2]): 5
- B. signalgrass plant response rating (surinam grass; Postemergence, Rate 250 g/ha, scale 0 to 10, 0 no effect, 10 complete control): 7
- Plant response rating, B. signalgrass (surinam grass; [3]): 8
- Plant response rating, B. signalgrass (surinam grass; [4]): 9
- B. signalgrass plant response rating (surinam grass; [5]): 9
- B. signalgrass plant response rating (surinam grass; [7]): 9
- B. signalgrass plant response rating (surinam grass; [8]): 10
- Wheat plant response rating (wheat; [1]): 0
- Plant response rating, Wheat (wheat; [3]): 5
- Plant response rating, Wheat (wheat; [4]): 2
- Wheat plant response rating (wheat; [5]): 6
- Wheat plant response rating (wheat; [6]): 8
- Crabgrass plant response rating (crabgrass; [1]): 6
- Crabgrass plant response rating (crabgrass; [2]): 9
- Crabgrass plant response rating (crabgrass; [9]): 8
- Plant response rating, Crabgrass (crabgrass; [3]): 9
- Plant response rating, Crabgrass (crabgrass; [4]): 7
- Crabgrass plant response rating (crabgrass; [5]): 9
- Crabgrass plant response rating (crabgrass; [6]): 10
- Cocklebur plant response rating (cocklebur; [1]): 3
- Cocklebur plant response rating (cocklebur; [2]): 3
- Cocklebur plant response rating (cocklebur; [9]): 3
- Plant response rating, Cocklebur (cocklebur; [3]): 5
- Plant response rating, Cocklebur (cocklebur; [4]): 0
- Cocklebur plant response rating (cocklebur; [5]): 0
- Cocklebur plant response rating (cocklebur; [7]): 2
- Cocklebur plant response rating (cocklebur; [6]): 2
- Bedstraw plant response rating (bedstraw; [2]): 9
- Bedstraw plant response rating (bedstraw; [9]): 9
- Plant response rating, Bedstraw (bedstraw; Preemergence): 8
- Bedstraw plant response rating (bedstraw; [5]): 9
- Bedstraw plant response rating (bedstraw; [7]): 9
- Bedstraw plant response rating (bedstraw; [8]): 10
- Corn plant response rating (corn; [1]): 2
- Corn plant response rating (corn; [2]): 2
- Corn plant response rating (corn; [9]): 2
- Plant response rating, Corn (corn; [3]): 6
- Plant response rating, Corn (corn; [4]): 0
- Corn plant response rating (corn; [5]): 5
- Corn plant response rating (corn; [6]): 8
- Soybean plant response rating (soybean; [1]): 3
- Soybean plant response rating (soybean; [2]): 4
- Plant response rating, Soybean (soybean; [3]): 4
- Plant response rating, Soybean (soybean; [4]): 0
- Soybean plant response rating (soybean; [5]): 3
- Soybean plant response rating (soybean; [6]): 8
- Sugarbeets plant response rating (sugar beet; [1]): 6
- Sugarbeets plant response rating (sugar beet; [2]): 6
- Plant response rating, Sugarbeets (sugar beet; [3]): 9
- Plant response rating, Sugarbeets (sugar beet; [4]): 9
- Sugarbeets plant response rating (sugar beet; [5]): 10
- Sugarbeets plant response rating (sugar beet; [6]): 10
- Nutsedge plant response rating (purple nutsedge; [1]): 0
- Plant response rating, Nutsedge (purple nutsedge; [3]): 2
- Plant response rating, Nutsedge (purple nutsedge; [4]): 0
- Nutsedge plant response rating (purple nutsedge; [5]): 8
- Nutsedge plant response rating (purple nutsedge; [6]): 10
- Redroot pigweed plant response rating (pigweed; [1]): 7
- Redroot pigweed plant response rating (pigweed; [2]): 9
- Plant response rating, Redroot pigweed (pigweed; [3]): 10
- Plant response rating, Redroot pigweed (pigweed; [4]): 10
- Redroot pigweed plant response rating (pigweed; [5]): 10
- Redroot pigweed plant response rating (pigweed; [6]): 10
- Blackgrass plant response rating (blackgrass; [1]): 3
- Blackgrass plant response rating (blackgrass; [2]): 4
- Blackgrass plant response rating (blackgrass; [9]): 6
- Plant response rating, Blackgrass (blackgrass; [3]): 6
- Plant response rating, Blackgrass (blackgrass; [4]): 9
- Blackgrass plant response rating (blackgrass; [5]): 9
- Blackgrass plant response rating (blackgrass; [7]): 10
- Blackgrass plant response rating (blackgrass; [6]): 10
- Giant foxtail plant response rating (giant foxtail; [1]): 7
- Giant foxtail plant response rating (giant foxtail; [2]): 8
- Plant response rating, Giant foxtail (giant foxtail; [3]): 9
- Plant response rating, Giant foxtail (giant foxtail; [4]): 9
- Giant foxtail plant response rating (giant foxtail; [5]): 10
- Giant foxtail plant response rating (giant foxtail; [6]): 10
- Velvetleaf plant response rating (velvetleaf; [1]): 4
- Velvetleaf plant response rating (velvetleaf; [2]): 4
- Plant response rating, Velvetleaf (velvetleaf; [3]): 5
- Plant response rating, Velvetleaf (velvetleaf; [4]): 5
- Velvetleaf plant response rating (velvetleaf; [5]): 8
- Velvetleaf plant response rating (velvetleaf; [6]): 10
- Wild oats plant response rating (wild oat; [1]): 0
- Wild oats plant response rating (wild oat; [2]): 0
- Plant response rating, Wild oats (wild oat; [3]): 7
- Plant response rating, Wild oats (wild oat; [4]): 7
- Wild oats plant response rating (wild oat; [5]): 9
- Wild oats plant response rating (wild oat; [6]): 10

Structure (SMILES): COCn1c(=O)on(C(=O)N(c2ccc(F)cc2F)C(C)C)c1=O [Compound 503]
- Plant response rating, Rape (rape; [4]): 4
- Rape plant response rating (rape; [5]): 8
- Rape plant response rating (rape; [6]): 9
- Plant response rating, Morningglory (morningglory; [4]): 2
- Morningglory plant response rating (morningglory; [5]): 2
- Morningglory plant response rating (morningglory; [6]): 7
- Plant response rating, B. signalgrass (surinam grass; [4]): 6
- B. signalgrass plant response rating (surinam grass; [5]): 8
- B. signalgrass plant response rating (surinam grass; [7]): 8
- B. signalgrass plant response rating (surinam grass; [8]): 9
- Plant response rating, Wheat (wheat; [4]): 0
- Wheat plant response rating (wheat; [5]): 2
- Wheat plant response rating (wheat; [6]): 8
- Plant response rating, Crabgrass (crabgrass; [4]): 8
- Crabgrass plant response rating (crabgrass; [5]): 8
- Crabgrass plant response rating (crabgrass; [6]): 9
- Plant response rating, Cocklebur (cocklebur; [4]): 0
- Cocklebur plant response rating (cocklebur; [5]): 0
- Cocklebur plant response rating (cocklebur; [7]): 0
- Cocklebur plant response rating (cocklebur; [6]): 3
- Plant response rating, Bedstraw (bedstraw; Preemergence): 5
- Bedstraw plant response rating (bedstraw; [5]): 5
- Bedstraw plant response rating (bedstraw; [7]): 6
- Bedstraw plant response rating (bedstraw; [8]): 10
- Plant response rating, Corn (corn; [4]): 3
- Corn plant response rating (corn; [5]): 5
- Corn plant response rating (corn; [6]): 9
- Plant response rating, Soybean (soybean; [4]): 2
- Soybean plant response rating (soybean; [5]): 3
- Soybean plant response rating (soybean; [6]): 7
- Plant response rating, Sugarbeets (sugar beet; [4]): 2
- Sugarbeets plant response rating (sugar beet; [5]): 6
- Sugarbeets plant response rating (sugar beet; [6]): 9
- Plant response rating, Nutsedge (purple nutsedge; [4]): 0
- Nutsedge plant response rating (purple nutsedge; [5]): 0
- Nutsedge plant response rating (purple nutsedge; [6]): 2
- Plant response rating, Redroot pigweed (pigweed; [4]): 8
- Redroot pigweed plant response rating (pigweed; [5]): 10
- Redroot pigweed plant response rating (pigweed; [6]): 10
- Plant response rating, Blackgrass (blackgrass; [4]): 10
- Blackgrass plant response rating (blackgrass; [5]): 9
- Blackgrass plant response rating (blackgrass; [7]): 9
- Blackgrass plant response rating (blackgrass; [6]): 10
- Plant response rating, Giant foxtail (giant foxtail; [4]): 9
- Giant foxtail plant response rating (giant foxtail; [5]): 9
- Giant foxtail plant response rating (giant foxtail; [6]): 10
- Plant response rating, Velvetleaf (velvetleaf; [4]): 6
- Velvetleaf plant response rating (velvetleaf; [5]): 6
- Velvetleaf plant response rating (velvetleaf; [6]): 8
- Plant response rating, Wild oats (wild oat; [4]): 6
- Wild oats plant response rating (wild oat; [5]): 10
- Wild oats plant response rating (wild oat; [6]): 9
